Data reported in ChEMBL document CHEMBL4020836, “Discovery of 7-Oxo-2,4,5,7-tetrahydro-6 H-pyrazolo[3,4- c]pyridine Derivatives as Potent, Orally Available, and Brain-Penetrating Receptor Interacting Protein 1 (RIP1) Kinase Inhibitors: Analysis of Structure-Kinetic Relationships” (J Med Chem, 2018).

How the values were obtained:
[1] = Metabolic stability in mouse liver microsomes; format: ADME, microsome; conditions: read-out: Stability
[2] = Metabolic stability in human liver microsomes; format: ADME, microsome; conditions: read-out: Stability

Work on `CN1C(=O)[C@@H](N2CCc3c(nn(Cc4ccccc4)c3Cl)C2=O)COc2ccccc21` yielded a microsomal CLint [1] of 100 µL/min/mg and a microsomal CLint [2] of 101 µL/min/mg.
In the case of `CNC(=O)c1ccc2c(c1)OC[C@H](N1CCc3c(nn(Cc4ccccc4)c3Cl)C1=O)C(=O)N2C`, the microsomal CLint [1] is reported as less than 1 µL/min/mg and the microsomal CLint [2] is reported as 13 µL/min/mg.
